The experiment concerns the target Neuropilin-1 (Homo sapiens) (UniProt O14786). Nature of the experiment: blockers of CendR peptide binding to NRP-1 – biochemical, FP and AlphaScreen panel, dose response (AID 651650). To be noted: NRP-1 b1b2 / RPARPAR peptide binding, FP or AlphaScreen.
[1] abbreviates: AlphaScreen, run 1, individual panel run IC50.
The mark [2] stands for this setting: FP, run 1, individual panel run IC50.
[3] abbreviates: FP, run 2, individual panel run IC50.

This is an account of results in PubChem BioAssay AID651650 (Sanford-Burnham Center for Chemical Genomics, 2012).

Active and inactive are the calls of the source.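 The calls were made as follows: active = mean IC50 below 20 µM in each of the two panels, so potent in both; inactive = the rest.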 A value given as a limit tells only on which side of the number the result lay.

Sequence of Neuropilin-1 (Homo sapiens) (O14786 whole entry, looked up): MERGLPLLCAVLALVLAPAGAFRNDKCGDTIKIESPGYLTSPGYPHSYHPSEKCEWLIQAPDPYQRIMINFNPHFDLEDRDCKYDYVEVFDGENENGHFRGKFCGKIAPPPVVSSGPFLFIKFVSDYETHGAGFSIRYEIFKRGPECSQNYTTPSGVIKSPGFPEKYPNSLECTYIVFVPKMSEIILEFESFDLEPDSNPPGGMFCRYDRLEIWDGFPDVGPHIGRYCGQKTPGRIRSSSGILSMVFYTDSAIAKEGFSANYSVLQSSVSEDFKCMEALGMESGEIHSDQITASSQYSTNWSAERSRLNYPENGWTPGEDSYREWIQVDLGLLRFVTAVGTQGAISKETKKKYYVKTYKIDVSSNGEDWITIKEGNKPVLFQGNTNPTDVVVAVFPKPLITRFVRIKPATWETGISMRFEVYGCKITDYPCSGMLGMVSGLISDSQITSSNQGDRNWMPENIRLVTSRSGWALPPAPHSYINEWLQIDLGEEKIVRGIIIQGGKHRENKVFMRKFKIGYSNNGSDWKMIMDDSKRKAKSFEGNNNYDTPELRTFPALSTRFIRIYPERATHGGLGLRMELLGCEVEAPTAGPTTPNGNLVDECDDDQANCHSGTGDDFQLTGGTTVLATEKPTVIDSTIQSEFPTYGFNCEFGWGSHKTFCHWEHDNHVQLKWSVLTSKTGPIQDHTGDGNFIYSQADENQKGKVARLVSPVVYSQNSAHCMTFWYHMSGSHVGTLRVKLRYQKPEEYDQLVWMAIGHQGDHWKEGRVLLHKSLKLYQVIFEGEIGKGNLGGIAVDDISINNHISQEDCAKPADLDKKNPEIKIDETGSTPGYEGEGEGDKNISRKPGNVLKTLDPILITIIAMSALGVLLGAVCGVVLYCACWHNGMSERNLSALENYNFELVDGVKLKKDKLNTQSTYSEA

By IC50 is commonly meant the midpoint of a concentration-inhibition curve. With `Cc1ccc(NC(=O)c2ccc3c(c2)OCCO3)cc1S(=O)(=O)Nc1cccc(Cl)c1`, the IC50 is, setting by setting: (AlphaScreen, mean of runs) > 100 µM (inactive); under setting [1], above 100 µM; (FP, mean of runs) > 95 µM (inactive); under setting [2], above 95 µM; under setting [3], above 95 µM.

As to `CCc1ccc(NC(=O)CCn2nc(C)c(S(=O)(=O)N3CCCCC3)c2C)cc1`, the IC50 is > 100 µM (inactive) (AlphaScreen, mean of runs); above 100 µM under setting [1]; > 95 µM (inactive) (FP, mean of runs); above 95 µM under setting [2]; above 95 µM under setting [3].

Regarding `Cc1cccc(-c2noc(CSc3ccccc3)n2)c1`, the IC50 reads like this: (AlphaScreen, mean of runs) > 100 µM (inactive); under setting [1], above 100 µM; (FP, mean of runs) > 95 µM (inactive); under setting [2], above 95 µM; under setting [3], above 95 µM.

Consider `CN1C[C@H](CO)C=C2c3cccc4[nH]cc(c34)C[C@H]21`, for which the concentration for half-maximal inhibition (IC50) is, setting by setting: (AlphaScreen, mean of runs) 14.4 µM; under setting [1], 14.4 µM; (FP, mean of runs) > 95 µM (inactive); under setting [2], above 95 µM; under setting [3], above 95 µM.

With `Cc1ccc(C(=O)NCCCc2ccccc2)c(C)c1`, the IC50 runs as follows: (AlphaScreen, mean of runs) > 100 µM (inactive); under setting [1], above 100 µM; (FP, mean of runs) > 95 µM (inactive); under setting [2], above 95 µM; under setting [3], above 95 µM.

As for `Cn1c(=NC(=O)COc2ccccc2)sc2ccccc21`, the IC50 by setting is: (AlphaScreen, mean of runs) > 100 µM (inactive); under setting [1], above 100 µM; (FP, mean of runs) > 95 µM (inactive); under setting [2], above 95 µM; under setting [3], above 95 µM.

For `Cc1ccc(OCC(=O)Nc2ccc(C)c(S(=O)(=O)N3CCCCCC3)c2)c([N+](=O)[O-])n1`, the IC50 by setting is: (AlphaScreen, mean of runs) > 100 µM (inactive); under setting [1], above 100 µM; (FP, mean of runs) > 95 µM (inactive); under setting [2], above 95 µM; under setting [3], above 95 µM.

Turning to `Cc1ccc(NC=C(S(=O)(=O)c2ccccc2)S(=O)(=O)c2ccccc2)cc1`, the IC50 is, setting by setting: (AlphaScreen, mean of runs) > 100 µM (inactive); under setting [1], above 100 µM; (FP, mean of runs) > 95 µM (inactive); under setting [2], above 95 µM; under setting [3], above 95 µM.

For `O=C(COc1ccc(Br)cc1CO)Nc1ccc(F)cc1`, the IC50 was > 100 µM (inactive) (AlphaScreen, mean of runs); above 100 µM under setting [1]; > 95 µM (inactive) (FP, mean of runs); above 95 µM under setting [2]; above 95 µM under setting [3].

As to `CCCS(=O)(=O)N1CCC(Cc2ccc(OC)cc2)(C(=O)OCC)CC1`, the IC50 runs as follows: (AlphaScreen, mean of runs) > 100 µM (inactive); under setting [1], above 100 µM; (FP, mean of runs) > 95 µM (inactive); under setting [2], above 95 µM; under setting [3], above 95 µM.

`COC(=O)c1ccc(Cn2nnc3c(=O)[nH]c(C4CCCN(S(=O)(=O)c5cccc(Cl)c5)C4)nc32)cc1` (stereo not given): the IC50 by setting is: (AlphaScreen, mean of runs) > 100 µM (inactive); under setting [1], above 100 µM; (FP, mean of runs) > 95 µM (inactive); under setting [2], above 95 µM; under setting [3], above 95 µM.

For the molecule `N#CC(C#N)=Cc1cc2ccccc2nc1N1CCCCC1`, the IC50 (AlphaScreen, mean of runs) was > 100 µM (inactive); the half-maximal inhibitory concentration (IC50) under setting [1] was above 100 µM; the IC50 (FP, mean of runs) was > 95 µM (inactive); the IC50 under setting [2] is above 95 µM; the IC50 under setting [3] is above 95 µM.

For the molecule `CCOc1ccc(N2C(=O)CC(N3CCN(c4ccc(Cl)cc4)CC3)C2=O)cc1` (stereo not given), the IC50 result (AlphaScreen, mean of runs) was “inactive”. For the same molecule, the IC50 is 22.2 µM under setting [1]; > 95 µM (inactive) (FP, mean of runs); above 95 µM under setting [2]; above 95 µM under setting [3].

Take `CN1C(=O)c2oc3ccccc3c(=O)c2C1c1ccccn1` (stereo not given): the IC50 entry is “inactive” (AlphaScreen, mean of runs) and “inactive” (FP, mean of runs). For the same molecule, the half-maximal inhibitory concentration (IC50) runs as follows: under setting [1], 34.9 µM; under setting [2], 25.1 µM; under setting [3], 21.4 µM.

In the case of `COc1ccc2c(c1)N(C)/C(=C1/SC(=NCc3ccccc3)N(c3ccccc3)C1=O)S2`, the IC50 by setting is: (AlphaScreen, mean of runs) > 100 µM (inactive); under setting [1], above 100 µM; (FP, mean of runs) > 95 µM (inactive); under setting [2], above 95 µM; under setting [3], above 95 µM.

Consider `Cc1ccc(Cn2c(C(C)Nc3nc(-c4ccc(Cl)c([N+](=O)[O-])c4)cs3)nc3cc(C(F)(F)F)ccc32)cc1` (stereo not given), for which the IC50 runs as follows: (AlphaScreen, mean of runs) > 100 µM (inactive); under setting [1], above 100 µM; (FP, mean of runs) > 95 µM (inactive); under setting [2], above 95 µM; under setting [3], above 95 µM.

Consider `CN(C)Cc1cc(C(F)(F)F)ccc1C(O)(c1ccccc1)c1ccccc1`, for which the IC50 reads like this: (AlphaScreen, mean of runs) > 100 µM (inactive); under setting [1], above 100 µM; (FP, mean of runs) > 95 µM (inactive); under setting [2], above 95 µM; under setting [3], above 95 µM.

As for `O=C(c1ncn(Cc2ccccc2)c1C(=O)N1CCc2ccccc2C1)N1CCc2ccccc2C1`, the IC50 was > 100 µM (inactive) (AlphaScreen, mean of runs); above 100 µM under setting [1]; > 95 µM (inactive) (FP, mean of runs); above 95 µM under setting [2]; above 95 µM under setting [3].

Take `CCCCOc1ccc(C(=O)N/C(=C/C=C/c2ccccc2)C(=O)NCCCO)cc1`: the IC50 by setting is: (AlphaScreen, mean of runs) > 100 µM (inactive); under setting [1], above 100 µM; (FP, mean of runs) > 95 µM (inactive); under setting [2], above 95 µM; under setting [3], above 95 µM.

Regarding `Cc1ccc(C(=O)C2CN3CCC2CC3)cc1` (stereo not given), the IC50 reads like this: (AlphaScreen, mean of runs) > 100 µM (inactive); under setting [1], above 100 µM; (FP, mean of runs) > 95 µM (inactive); under setting [2], above 95 µM; under setting [3], above 95 µM.

Regarding `O=S1(=O)CCOC[C@H](Cc2ccccc2)N1Cc1ccccc1F`, the IC50 reads like this: (AlphaScreen, mean of runs) > 100 µM (inactive); under setting [1], above 100 µM; (FP, mean of runs) > 95 µM (inactive); under setting [2], above 95 µM; under setting [3], above 95 µM.

Consider `CCOC(=O)CNc1ccc2c(c1)OCO2`, for which the IC50 result was “inactive” (AlphaScreen, mean of runs) and “inactive” (FP, mean of runs). Further, the 50% inhibitory concentration (IC50) runs as follows: under setting [1], 27.8 µM; under setting [2], above 95 µM; under setting [3], 38.7 µM.

Consider `COc1ccc([C@H]2/C=C\CN(C(=O)C3CC3)[C@@H](C)C(=O)N2Cc2ccc(F)cc2)cc1`, for which the IC50 by setting is: (AlphaScreen, mean of runs) > 100 µM (inactive); under setting [1], above 100 µM; (FP, mean of runs) > 95 µM (inactive); under setting [2], above 95 µM; under setting [3], above 95 µM.

Regarding `Cc1cc(NC(=O)CCC(=O)NNC(=O)c2ccc(C(C)(C)C)cc2)no1`, the half-maximal inhibitory concentration (IC50) runs as follows: (AlphaScreen, mean of runs) 8.63 µM; under setting [1], 8.63 µM; (FP, mean of runs) > 95 µM (inactive); under setting [2], above 95 µM; under setting [3], above 95 µM.

On to `COc1ccc(CCN=C2SCC(=O)N2Cc2ccccc2)cc1OC`, for which the IC50 runs as follows: (AlphaScreen, mean of runs) > 100 µM (inactive); under setting [1], above 100 µM; (FP, mean of runs) > 95 µM (inactive); under setting [2], above 95 µM; under setting [3], above 95 µM.

On to `CNC(=O)Nc1ccccc1C(=O)NCc1ccccc1`, for which the IC50 (AlphaScreen, mean of runs) is > 100 µM (inactive); the 50% inhibitory concentration (IC50) under setting [1] was above 100 µM; the IC50 (FP, mean of runs) is > 95 µM (inactive); the half-maximal inhibitory concentration (IC50) under setting [2] was above 95 µM; the IC50 under setting [3] is above 95 µM.

On to `CC1(C)CN=C(Nc2ccc(F)c(Cl)c2)S1`, for which the IC50 by setting is: (AlphaScreen, mean of runs) 18.9 µM; under setting [1], 18.9 µM; (FP, mean of runs) > 95 µM (inactive); under setting [2], above 95 µM; under setting [3], above 95 µM.

`O=[N+]([O-])c1ccc(Nc2nc(NC3CCCCC3)nc(N3CCCC3)n2)cc1`: the IC50 is, setting by setting: (AlphaScreen, mean of runs) > 100 µM (inactive); under setting [1], above 100 µM; (FP, mean of runs) > 95 µM (inactive); under setting [2], above 95 µM; under setting [3], above 95 µM.

In the case of `CC1CCN(C(=O)c2[nH]cnc2C(=O)NCc2ccc(CNC(=O)OC(C)(C)C)cc2)CC1`, the IC50 by setting is: (AlphaScreen, mean of runs) 12.9 µM; under setting [1], 12.9 µM; (FP, mean of runs) > 95 µM (inactive); under setting [2], above 95 µM; under setting [3], above 95 µM.

`COc1ccc(Cl)cc1S(=O)(=O)N1CCN(CC(=O)C(C)(C)C)CC1`: the IC50 reads like this: (AlphaScreen, mean of runs) > 100 µM (inactive); under setting [1], above 100 µM; (FP, mean of runs) > 95 µM (inactive); under setting [2], above 95 µM; under setting [3], above 95 µM.

On to `COc1ccccc1COc1ccc2c(C)c(CC(=O)O)c(=O)oc2c1C`, for which the IC50 by setting is: (AlphaScreen, mean of runs) > 100 µM (inactive); under setting [1], above 100 µM; (FP, mean of runs) > 95 µM (inactive); under setting [2], above 95 µM; under setting [3], above 95 µM.

Regarding `O=C(Cc1ccccc1Cl)N1CCOCC1`, the IC50 reads like this: (AlphaScreen, mean of runs) > 100 µM (inactive); under setting [1], above 100 µM; (FP, mean of runs) > 95 µM (inactive); under setting [2], above 95 µM; under setting [3], above 95 µM.

As to `O=C(c1ccc(-c2cccc(Cl)c2)o1)N1CCN(c2ccc([N+](=O)[O-])cc2)CC1`, the IC50 by setting is: (AlphaScreen, mean of runs) > 100 µM (inactive); under setting [1], above 100 µM; under setting [2], above 95 µM; under setting [3], 39.5 µM. Where the note is “FP, mean of runs”, the IC50 entry was “inactive”.

In the case of `CC(=O)c1ccc(OCC(=O)Nc2nnc(C3CC3)s2)cc1`, the IC50 is > 100 µM (inactive) (AlphaScreen, mean of runs); above 100 µM under setting [1]; > 95 µM (inactive) (FP, mean of runs); above 95 µM under setting [2]; above 95 µM under setting [3].
